Here are results for 25 compounds from patent publication US8962608B2, “Cycloalkylnitrile pyrazole carboxamides as janus kinase inhibitors” (Merck Sharp & Dohme Corp., priority 2011, dated 2015).

For experiment [1], the target named is T1, JAK2 (recombinant purified GST-tagged catalytic domain) (Homo sapiens (Human), UniProt O60674).
The target in experiment [2] is T2, JAK1 (recombinant purified GST-tagged catalytic domain) (Homo sapiens (Human), UniProt P23458).
Experiment [3] has as its target T1, JAK2 (recombinant purified GST-tagged catalytic domain). The experiment is described as follows: biochemical.
The target in experiment [4] is T2, JAK1 (recombinant purified GST-tagged catalytic domain). Put plainly: biochemical.

pIC50: −log10 of the molar value. Structures can show the parent of a compound that is named as a salt. Where two headings read alike, the source gives them in different places.

T1 sequence (O60674 849-1124): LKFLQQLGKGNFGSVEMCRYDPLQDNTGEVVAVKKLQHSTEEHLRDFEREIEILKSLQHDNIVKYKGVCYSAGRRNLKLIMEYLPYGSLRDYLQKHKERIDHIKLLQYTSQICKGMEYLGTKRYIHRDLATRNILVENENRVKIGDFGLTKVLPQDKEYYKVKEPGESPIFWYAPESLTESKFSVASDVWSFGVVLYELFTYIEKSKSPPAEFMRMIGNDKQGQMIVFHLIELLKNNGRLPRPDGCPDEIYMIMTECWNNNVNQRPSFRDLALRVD
T2 sequence (P23458 875-1153): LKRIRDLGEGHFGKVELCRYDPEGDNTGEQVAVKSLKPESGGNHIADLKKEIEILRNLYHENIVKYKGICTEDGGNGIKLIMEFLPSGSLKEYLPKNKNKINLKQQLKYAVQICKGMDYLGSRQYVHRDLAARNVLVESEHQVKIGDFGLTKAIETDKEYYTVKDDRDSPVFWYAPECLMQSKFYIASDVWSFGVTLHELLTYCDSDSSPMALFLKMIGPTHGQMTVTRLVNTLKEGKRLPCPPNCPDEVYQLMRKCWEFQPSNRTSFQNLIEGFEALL

The term pIC50 denotes the IC50 on a negative log10 scale, so that one unit is a factor of ten. For `CC1CCC(C#N)C(n2cc(C(N)=O)c(Nc3ccccc3)n2)C1` (stereo not drawn) [Example 11-6, 1-(2-cyano-5-methylcyclohexyl)-3-(phenylamino)-1H-pyrazole-4-carboxamide], the pIC50 in experiment [1] was 7.42; in experiment [2], 8.15.

Turning to `N#C[C@H]1C[C@@H](NCC(F)F)CC[C@@H]1n1cc(C(N)=O)c(Nc2ccc(S(=O)(=O)C(F)F)cc2)n1` (single isomer, unassigned) [Example 28-126, 1-{(1S,2S,4S or 1R,2R,4R )-2-cyano-4-[(2,2-difluoroethyl)amino]cyclohexyl}-3-({4-[(difluoro-methyl)sulfonyl]phenyl}amino)-1H-pyrazole-4-carboxamide], the pIC50 is 8.30 in experiment [1] and 9.30 in experiment [2].

Consider `COCC(C)N(C)[C@H]1CCC(n2cc(C(N)=O)c(Nc3ccc(Cl)cc3)n2)[C@@H](C#N)C1` (single isomer, unassigned) [Example 28-241, 3-[(4-chlorophenyl)amino]-1-[(1R,2S,4S1S,2S,4S or 1R,2R,4R)-2-cyano-4-{[(1S or 1R)-2-methoxy-1-methylethyl](methyl)ami-no}cyclohexyl]-1H-pyrazole-4-carboxamide], for which the pIC50 was 8.70 in experiment [2] and 7.55 in experiment [3].

With `CC(C)(C)OC(=O)NCC1CC[C@@H](C#N)[C@@H](n2cc(C(N)=O)c(Nc3ccc(F)cc3)n2)C1` (mixture of isomers) [Example 11-8, tert-butyl {[(3S,4R) and (3R,4S)]-3-{4-carbamoyl-3-[(4-fluorophenyl)amino]-1H-pyrazol-1-yl}-4-cyanocyclohexyl]methyl}carbamate], the pIC50 is less than 5.82 in experiment [1] and 6.80 in experiment [2].

In the case of `N#C[C@H]1C[C@@H](NCC2(O)CC2)CC[C@@H]1n1cc(C(N)=O)c(Nc2ccc(Cl)cc2)n1` (single isomer, unassigned) [Example 28-220, 3-[(4-chlorophenyl)amino]-1-[(1S,2S,4S or 1R,2R,4R)-2-cyano-4-{[(1-hydroxycyclo-propyl)methyl]amino}cyclohexyl]-1H-pyrazole-4-carboxamide], the pIC50 in experiment [1] was 7.52; in experiment [2], 8.70.

`CC1(N[C@H]2CCC(n3cc(C(N)=O)c(Nc4ccc(Cl)cc4)n3)[C@@H](C#N)C2)CC1` (single isomer, unassigned) [Example 28-205, 3-[(4-chlorophenyl)amino]-1-{(1S,2S,4S or 1R,2R,4R,)-2-cyano-4-[(1-methylcyclopropyl)amino]cyclo-hexyl}-1H-pyrazole-4-carboxamide]: the pIC50 in experiment [2] was 9.05.

As to `CS(=O)(=O)N[C@H]1CC[C@H](n2cc(C(N)=O)c(Nc3ccc(F)cc3)n2)[C@@H](C#N)C1` (mixture of isomers) [Example 38-1, 1-{(1S,2S,4S and 1R,2R,4R)-2-cyano-4-[(methylsulfonyl)amino]cyclohexyl}-3-[(4-fluorophenyl)amino]-1H-pyrazole-4-carboxamide], the results for the pIC50 in experiment [1] and in experiment [2] were 7.85 and 8.70, respectively.

Consider `N#C[C@H]1CCC[C@@H]1n1cc(C(N)=O)c(Nc2ccccc2)n1` (mixture of isomers) [Example 1-2, 1-{[(1S,2S) and (1R,2R)]-2-cyanocyclopentyl]}-3-(phenylamino)-1H-pyrazole-4-carboxamide], for which the values for the pIC50 in experiment [1] and in experiment [2] were 7.00 and 8.10, respectively.

Regarding `C[N+]1([C@H]2CC[C@H](n3cc(C(N)=O)c(Nc4ccc(Cl)cc4)n3)[C@@H](C#N)C2)CCC1` [Example 31-2, 1-[(1S,3S,4S)-4-{4-carbamoyl-3-[(4-chlorophenyl)amino]-1H-pyrazol-1-yl}-3-cyanocyclohexyl]-1-methylazetidinium], in experiment [2], the pIC50 is 9.00.

Take `CS(=O)(=O)c1ccc(Nc2nn([C@H]3CCCC[C@H]3C#N)cc2C(N)=O)cc1` (single isomer, unassigned) [Example 42-4, 1-[(1S,2R or 1R,2S)-2-cyanocyclohexyl]-3-{[4-(methylsulfonyl)phenyl]amino}-1H-pyrazole-4-carboxamide]: in experiment [1], the pIC50 is 8.15.

With `CS(=O)(=O)c1ccc(Nc2nn([C@H]3CCCC[C@H]3C#N)cc2C(N)=O)cc1` (single isomer, unassigned) [Example 42-3, 1-[(1S,2R or 1R,2S)-2-cyanocyclohexyl]-3-{[4-(methylsulfonyl)phenyl]amino}-1H-pyrazole-4-carboxamide], in experiment [1], the pIC50 is 7.07.

In the case of `N#C[C@H]1C[C@H](O)CC[C@@H]1n1cc(C(N)=O)c(Nc2ccc(C(F)(F)F)cc2)n1` (single isomer, unassigned) [Example 25-24, 1-[(1S,2S,4R or 1R,2R,4S)-2-cyano-4-hydroxycyclohexyl]-3-{[4-(trifluoromethyl)phenyl]amino}-1H-pyrazole-4-carboxamide], the results for the pIC50 in experiment [2] and in experiment [3] were 9.00 and 8.10, respectively.

`CN(C)[C@@H]1CC[C@H](n2cc(C(N)=O)c(Nc3ccc(S(=O)(=O)C(F)(F)F)cc3)n2)[C@@H](C#N)C1` (mixture of isomers) [Example 27-2, 1-[(1R,3S,4S and 1S,3R,4R)-4-[4-carbamoyl-3-({4-[(trifluoromethyl)sulfonyl]phenyl}amino)-1H-pyrazol-1-yl]-3-cyano-N,N-dimethylcyclohexanaminium trifluoroacetate]: the pIC50 in experiment [2] is 9.30.

As for `CC(O)(c1ccc(Nc2nn([C@H]3CCCC[C@@H]3C#N)cc2C(N)=O)cn1)C(F)F` (single isomer, unassigned) [Example 17-40, 1-[(1S,2S or 1R,2R)-2-cyanocyclohexyl]-3-({6-[(1R or 1S)-2,2-difluoro-1-hydroxy-1-methylethyl]pyridin-3-yl}amino)-1H-pyrazole-4-carboxamide], in experiment [2], the pIC50 is 9.62.

`CC1(C)CN([C@H]2CC[C@H](n3cc(C(N)=O)c(Nc4ccnc(F)c4)n3)[C@@H](C#N)C2)C1` (single isomer, unassigned) [Example 28-134, 1-[(1S,2S,4S or 1R,2R,4R )-2-cyano-4-(3,3-dimethylazetidin-1-yl)cyclohexyl]-3-[(2-fluoropyridin-4-yl)amino]-1H-pyrazole-4-carboxamide]: the pIC50 in experiment [2] is 9.00.

For `CS(=O)(=O)c1ccc(Nc2nn(C3CCCCC3C#N)cc2C(N)=O)cc1` (stereo not drawn) [Example 2-15, 1-(2-cyanocyclohexyl)-3-{[4-(methylsulfonyl)phenyl]amino}-1H-pyrazole-4-carboxamide], the pIC50 in experiment [1] was 8.05.

Take `N#C[C@@H]1CCCC[C@@H]1n1cc(C(N)=O)c(Nc2ccc(CC(=O)O)cc2)n1` (mixture of isomers) [Example 3-1, [4-({4-carbamoyl-1-[(1S,2R and 1R,2S)-2-cyanocyclohexyl]-1H-pyrazol-3-yl}amino)phenyl]acetic acid]: the pIC50 in experiment [1] is 6.96.

Take `N#C[C@H]1C[C@@H]([N+]2(CC3CC3)CCC2)CC[C@@H]1n1cc(C(N)=O)c(Nc2ccc(Cl)cc2)n1` [Example 31-5, 1-[(1S,3S,4S)-4-{4-carbamoyl-3-[(4-chlorophenyl)amino]-1H-pyrazol-1-yl}-3-cyanocyclohexyl]-1-(cyclopropylmethyl)azetidinium]: in experiment [2], the pIC50 is 9.07.

For the compound `CN(C)[C@H]1CC[C@H](n2cc(C(N)=O)c(Nc3ccc(S(=O)(=O)C(F)(F)F)cc3)n2)[C@@H](C#N)C1` (mixture of isomers) [Example 27-1, 1-[(1S,3S,4S and 1R,3R,4R)-4-[4-carbamoyl-3-({4-[(trifluoromethyl)sulfonyl]phenyl}amino)-1H-pyrazol-1-yl]-3-cyano-N,N-dimethylcyclohexanaminium trifluoroacetate], the pIC50 in experiment [2] is 9.70.

Take `CC(C)(C)OC(=O)C1CCC(n2cc(C(N)=O)c(Nc3ccc(S(=O)(=O)C(F)(F)F)cc3)n2)C(C#N)C1` (stereo not drawn) [Example 17-2, tert-butyl 4-[4-carbamoyl-3-({4-[(trifluoromethyl)sulfonyl]phenyl}amino)-1H-pyrazol-1-yl]-3-cyanocyclohexanecarboxylate]: the pIC50 in experiment [2] was 7.64.

Regarding `CS(=O)(=O)c1ccc(Nc2nn([C@H]3CCCC[C@@H]3C#N)cc2C(N)=O)cc1` (single isomer, unassigned) [Example 42-2, 1-[(1S,2S or 1R,2R)-2-cyanocyclohexyl]-3-{[4-(methylsulfonyl)phenyl]amino}-1H-pyrazole-4-carboxamide], in experiment [1], the pIC50 is 7.57.

For `Cc1cncc(Nc2nn([C@H]3CCCC[C@@H]3C#N)cc2C(N)=O)c1` [Example 17-73, 1-[(1S,2S)-2-cyanocyclohexyl]-3-[(5-methylpyridin-3-yl)amino]-1H-pyrazole-4-carboxamide], the pIC50 in experiment [2] was 7.80.

As for `N#C[C@H]1C[C@@H](NC(C2CC2)C2CC2)CC[C@@H]1n1cc(C(N)=O)c(Nc2ccc(S(=O)(=O)C(F)(F)F)cc2)n1` (single isomer, unassigned) [Example 28-180, 1-{(1S,2S,4S or 1R,2R,4R)-2-cyano-4-[(dicyclopropyl-methyl)amino]cyclohexyl}-3-({4-[(trifluoro-methyl)sulfonyl]phenyl}amino)-1H-pyrazole-4-carboxamide], the pIC50 in experiment [4] was 9.22; in experiment [3], 7.41.

Take `CS(=O)(=O)C1CN(C(=O)[C@@H]2CC[C@@H](n3cc(C(N)=O)c(Nc4ccc(Cl)cc4)n3)[C@H](C#N)C2)C1` (single isomer, unassigned) [Example 35-8, 3-[(4-chlorophenyl)amino]-1-[(1R,2R,4R or 1S,2S,4S)-2-cyano-4-{[3-(methylsulfonyl)azetidin-1-yl]carbonyl}cyclohexyl]-1H-pyrazole-4-carboxamide]: the pIC50 in experiment [4] was 8.52; in experiment [3] it was 7.72.

For the compound `C[C@H](N[C@H]1CC[C@H](n2cc(C(N)=O)c(Nc3ccc(OC(F)(F)F)cc3)n2)[C@@H](C#N)C1)C1CC1` (single isomer, unassigned) [Example 28-91, 1-[(1S,2S,4S or 1R,2R,4R)-2-cyano-4-{[(1S)-1-cyclopropylethyl]amino}cyclo-hexyl]-3-{[4-(trifluoromethoxy)phenyl]amino}-1H-pyrazole-4-carboxamide], the pIC50 is 9.00 in experiment [4] and 7.19 in experiment [3].
